In patent US20240199611A1, “ANTIBACTERIAL COMPOUNDS” (JANSSEN SCIENCES IRELAND UNLIMITED COMPANY, priority 2021, published 2024):

Test system: not given
Assay: not given
Settings: not given
With CCC1=NN(c2ccc(CNC(=O)c3c(CC)nc4ccc(Cl)cn34)cc2)CCN1S(=O)(=O)C(F)(F)F [Compound 2] the melting point was 178.31 °C. Compound CCc1nc2n(c1C(=O)NCc1ccc(N3CCN(S(=O)(=O)C(F)(F)F)C=N3)cc1)CCCC2 [Compound 3] has a melting point of 189.22 °C. In the case of O=C(NCc1ccc(N2CCN(S(=O)(=O)C(F)(F)F)C=N2)cc1)c1c(C2CC2)nc2ncc(Cl)cn12 [Compound 7], the melting point is reported as 208.41 °C. For COCc1nc2ccc(Cl)cn2c1C(=O)NCc1ccc(N2CCN(S(=O)(=O)C(F)(F)F)C=N2)cc1 [Compound 8], the melting point was 167.12 °C. In the case of CCc1nc2ncc(F)cn2c1C(=O)NCc1ccc(N2CCN(S(=O)(=O)C(F)(F)F)C=N2)cc1 [Compound 10], the melting point is reported as 171.42 °C. In the case of COc1ccn2nc(C)c(C(=O)NCc3ccc(N4CCN(S(=O)(=O)C(F)(F)F)C=N4)cc3)c2c1 [Compound 14], the melting point is reported as 192.27 °C. For CCc1nc2ccc(Cl)cn2c1C(=O)NCc1ccc(N2CCN(C)C=N2)cc1 [Compound 15], the melting point was 206.66 °C. Compound CCc1nc2ccc(Cl)cn2c1C(=O)NCc1ccc(N2CCN(S(=O)(=O)CC(C)C)C=N2)cc1 [Compound 17] has a melting point of 196.82 °C. For CCc1nc2ccc(Cl)cn2c1C(=O)NCc1ccc(N2CCN(C(C)=O)C=N2)cc1 [Compound 18], the melting point was 245.36 °C. CCc1nc2ccc(Cl)cn2c1C(=O)NCc1ccc(N2CCN(S(=O)(=O)CCOC)C=N2)cc1 [Compound 19] gave a melting point of 196.34 °C. CCc1nc2ccc(Cl)cn2c1C(=O)NCc1ccc(N2CCN(S(=O)(=O)C(F)(F)F)C(C)=N2)cc1 [Compound 21] gave a melting point of 157.49 °C. Compound CCc1nc2ccc(Cl)cn2c1C(=O)NCc1ccc(N2CCN(S(=O)(=O)C(F)(F)F)C=N2)cc1OC [Compound 22] has a melting point of 175.12 °C. CCc1nc2ncc(Cl)cn2c1C(=O)NCc1ccc(N2CCN(S(=O)(=O)CC(C)C)C=N2)cc1 [Compound 23] gave a melting point of 207.21 °C. CCc1nc2ncc(Cl)cn2c1C(=O)NCc1ccc(N2CCN(C(C)=O)C=N2)cc1 [Compound 24] showed a melting point of 258.01 °C. In the case of CCc1nc2ncc(Cl)cn2c1C(=O)NCc1ccc(N2CCN(S(=O)(=O)C(F)(F)F)C(OC)=N2)cc1 [Compound 27], the melting point is reported as 174.88 °C. CCc1nc2ncc(COC)cn2c1C(=O)NCc1ccc(N2CCN(S(=O)(=O)C(F)(F)F)C=N2)cc1 [Compound 33] gave a melting point of 225.92 °C. Compound CCc1nc2ccc(Cl)cn2c1C(=O)NCc1cc(F)c(N2CCN(S(=O)(=O)C(F)(F)F)C=N2)c(F)c1 [Compound 35] has a melting point of 152.93 °C. CCc1nc2ccc(Cl)cn2c1C(=O)NCc1ccc(N2CCN(S(=O)(=O)C(F)(F)F)C(OC)=N2)c(F)c1 [Compound 37] gave a melting point of 193.36 °C. Compound CCc1nc2ccc(Cl)cn2c1C(=O)NCc1ccc(N2CCN(C=O)C=N2)cc1 [Compound 38] has a melting point of 255.93 °C. Compound CCc1nc2c(Cl)c(OC)ccn2c1C(=O)NCc1ccc(N2CCN(S(=O)(=O)C(F)(F)F)C=N2)cc1 [Compound 39] has a melting point of 211.19 °C. For CCc1nc2ccc(OC)cn2c1C(=O)NCc1ccc(N2CCN(S(=O)(=O)C(F)(F)F)C=N2)cc1 [Compound 42], the melting point was 147.57 °C. In the case of CCc1nc2cc(Cl)c(OC)cn2c1C(=O)NCc1ccc(N2CCN(S(=O)(=O)C(F)(F)F)C(OC)=N2)cc1 [Compound 45], the melting point is reported as 155.29 °C. Compound CCc1nc2cc(OC)c(Cl)cn2c1C(=O)NCc1ccc(N2CCN(S(=O)(=O)C(F)(F)F)C(OC)=N2)c(F)c1 [Compound 46] has a melting point of 176.82 °C. CCc1nc2ccc(OC)cn2c1C(=O)NCc1ccc(N2CCN(S(=O)(=O)C(F)(F)F)C(OC)=N2)c(F)c1 [Compound 48] showed a melting point of 74.6 °C. CCc1nc2cc(OC)ccn2c1C(=O)NCc1ccc(N2CCN(S(=O)(=O)C(F)(F)F)C=N2)cc1 [Compound 51] gave a melting point of 185.08 °C. Compound CCc1nc2cc(OC)ccn2c1C(=O)NCc1ccc(N2CCN(S(=O)(=O)C(F)(F)F)C(OC)=N2)cc1 [Compound 52] has a melting point of 164.28 °C. CCc1nc2ccc(Cl)cn2c1C(=O)NCc1ccc(N2CCN(S(=O)(=O)C(F)(F)F)C(CCOC)=N2)cc1 [Compound 55] showed a melting point of 193.51 °C. CCc1nc2ccc(Cl)cn2c1C(=O)NCc1ccc(N2CCNC=N2)cc1 [Compound 56] showed a melting point of 236.36 °C. For CCc1nc2n(c1C(=O)NCc1ccc(N3CCNC=N3)cc1)CCCC2 [Compound 57], the melting point was 211.47 °C. In the case of CCc1nc2ccc(Cl)cn2c1C(=O)NCc1ccc(N2CCN(C)C(C)=N2)cc1 [Compound 59], the melting point is reported as 202.94 °C. CCc1nc2ncc(C(=O)NC)cn2c1C(=O)NCc1ccc(N2CCN(S(=O)(=O)C(F)(F)F)C=N2)cc1 [Compound 61] gave a melting point of 193.44 °C. Work on CCc1nc2ccc(CCCOC)cn2c1C(=O)NCc1ccc(N2CCN(S(=O)(=O)C(F)(F)F)C=N2)cc1 [Compound 63] yielded a melting point of 159.95 °C. In the case of CCc1nc2cc(OC)c(Cl)cn2c1C(=O)NCc1ccc(N2CCN(S(=O)(=O)C(F)(F)F)C=N2)cc1 [Compound 64], the melting point is reported as 193.79 °C. In the case of CCc1nc2ccc(N3CCCC3)cn2c1C(=O)NCc1ccc(N2CCN(S(=O)(=O)C(F)(F)F)C=N2)cc1 [Compound 65], the melting point is reported as 228.15 °C. In the case of CCc1nc2ccc(Cl)cn2c1C(=O)NCc1ccc(N2CCN(C(=O)C(F)(F)F)C=N2)cc1 [Compound 66], the melting point is reported as 211.3 °C. With CCc1nc2cc(Cl)c(OC)cn2c1C(=O)NCc1ccc(N2CCN(S(=O)(=O)C(F)(F)F)C=N2)cc1 [Compound 67] the melting point was 206.99 °C. In the case of CCc1nc2ccc(Cl)cn2c1C(=O)NCc1ccc(N2CCN(Cc3nc(C(F)(F)F)cs3)C=N2)cc1 [Compound 69], the melting point is reported as 163.46 °C. CCc1nc2cccc(Cl)n2c1C(=O)NCc1ccc(N2CCN(S(=O)(=O)C(F)(F)F)C(OC)=N2)cc1 [Compound 70] showed a melting point of 138.71 °C. In the case of CCc1nc2ccc(C#N)cn2c1C(=O)NCc1ccc(N2CCN(S(=O)(=O)C(F)(F)F)C=N2)cc1 [Compound 72], the melting point is reported as 216.25 °C. With CCc1nc2cc(OC)ccn2c1C(=O)NCc1ccc(N2CCN(S(=O)(=O)C(F)(F)F)C(OC)=N2)c(F)c1 [Compound 75] the melting point was 135.16 °C. With CCc1nc2ccc(Cl)cn2c1C(=O)NCc1ccc(N2CCN(c3nccs3)C=N2)cc1 [Compound 76] the melting point was 232.4 °C.

Test system: Mycobacterium tuberculosis strain EH4.0 expressing green-fluorescent protein (GFP)
Assay: microbe, parasite or virus in culture
Assay type: cell-based
Settings: Test 1 (and/or Test 2), read-out: pIC50 (converted)
In the case of O=C(NCc1ccc(N2CCN(S(=O)(=O)C(F)(F)F)C=N2)c(F)c1)c1c(C(F)(F)F)nc2ccc(Cl)cn12 [Compound 124], the IC50 is reported as 10 nM. With CCc1nc2sc(Cl)cn2c1C(=O)NCc1ccc(N2CCN(S(=O)(=O)C(F)(F)F)C=N2)c(F)c1 [Compound 135] the IC50 was 7.24 nM. O=C(NCc1ccc(N2CCN(S(=O)(=O)C(F)(F)F)C=N2)c(F)c1)c1c(C(F)F)nc2n1CCCC2 [Compound 147] showed an IC50 of 3.8 nM. In the case of Cc1cn2c(C(=O)NCc3ccc(N4CCN(S(=O)(=O)C(F)(F)F)C=N4)c(F)c3)c(C)nc2s1 [Compound 153], the IC50 is reported as 1.78 nM. In the case of CCc1nc2nc3c(cn2c1C(=O)NCc1ccc(N2CCN(S(=O)(=O)C(F)(F)F)C=N2)c(F)c1)CCC3 [Compound 154], the IC50 is reported as 1.7 nM. Compound Cc1ccc2nc(C(F)(F)F)c(C(=O)NCc3ccc(N4CCN(S(=O)(=O)C(F)(F)F)C=N4)c(F)c3)n2c1 [Compound 175] has an IC50 of 1.58 nM. Compound CCc1nc2ccc(F)cn2c1C(=O)NCc1ccc(N2CCN(S(=O)(=O)C(F)(F)F)C(C3CC3)=N2)cc1 [Compound 227] has an IC50 of 11.5 nM. Work on CCc1nc2ncc(C)cn2c1C(=O)NCc1ccc(N2CCN(S(=O)(=O)C(F)(F)F)C(C3CC3)=N2)cc1 [Compound 228] yielded an IC50 of 1.45 nM. CCc1nc2ccc(C)cn2c1C(=O)NCc1ccc(N2CCN(S(=O)(=O)C(F)(F)F)C(C3CC3)=N2)cc1 [Compound 229] gave an IC50 of 1.07 nM. CCc1nc2ccc(Cl)cn2c1C(=O)NCc1ccc(N2CCN(S(=O)(=O)C(F)(F)F)C(C3CC3)=N2)cc1 [Compound 230] showed an IC50 of 6.61 nM. With CCc1nc2ccc(C)cn2c1C(=O)NCc1cnc(N2CCN(S(=O)(=O)C(F)(F)F)C(C3CC3)=N2)c(F)c1 [Compound 232] the IC50 was 1.51 nM. With CCC1=NN(c2ncc(CNC(=O)c3c(C(F)(F)F)nc4ccccn34)cc2F)CCN1S(=O)(=O)C(F)(F)F [Compound 236] the IC50 was 6.17 nM. Compound CCc1nc2ccc(C)cn2c1C(=O)NCc1ccc(N2CCN(S(=O)(=O)C(F)(F)F)C(C3CCC3)=N2)cc1 [Compound 237] has an IC50 of 5.75 nM. For CC(C)C1=NN(c2ccc(CNC(=O)c3c(C(F)(F)F)nc4n3CCCC4)cc2F)CCN1S(=O)(=O)C(F)(F)F [Compound 239], the IC50 was 8.91 nM. Work on CCc1nc2n(c1C(=O)NCc1ccc(N3CCN(S(=O)(=O)C(F)(F)F)C(C(C)C)=N3)c(F)c1)CCCC2 [Compound 242] yielded an IC50 of 2.4 nM. With CCc1nc2c(F)cc(Cl)cn2c1C(=O)NCc1ccc(N2CCN(S(=O)(=O)C(F)(F)F)C(C(C)C)=N2)cc1 [Compound 244] the IC50 was 4.57 nM. For CCc1nc2cc(C)c(C)cn2c1C(=O)NCc1ccc(N2CCN(S(=O)(=O)C(F)(F)F)C(C(C)C)=N2)cc1 [Compound 245], the IC50 was 13.8 nM. Work on CCc1nc2ccc(C)cn2c1C(=O)NCc1cnc(N2CCN(S(=O)(=O)C(F)(F)F)C(C(C)C)=N2)c(F)c1 [Compound 246] yielded an IC50 of 2.63 nM. In the case of Cc1cnc2nc(C(F)F)c(C(=O)NCc3ccc(N4CCN(S(=O)(=O)C(F)(F)F)C(C(C)C)=N4)c(F)c3)n2c1 [Compound 249], the IC50 is reported as 1.86 nM. Work on CCc1nc2ncc(C)cn2c1C(=O)NCc1ccc(N2CCN(S(=O)(=O)C(F)(F)F)C(C)=N2)cc1 [Compound 250] yielded an IC50 of 1.58 nM. Compound CC1=NN(c2ccc(CNC(=O)c3c(C(F)(F)F)nc4ncccn34)cc2F)CCN1S(=O)(=O)C(F)(F)F [Compound 254] has an IC50 of 53.7 nM. CC1=NN(c2ncc(CNC(=O)c3c(C(F)(F)F)nc4ccccn34)cc2F)CCN1S(=O)(=O)C(F)(F)F [Compound 256] showed an IC50 of 18.6 nM.

Same assay, conditions: read-out: pIC50 (converted)
With COCc1nc2ccc(Cl)cn2c1C(=O)NCc1ccc(N2CCN(S(=O)(=O)C(F)(F)F)C=N2)cc1 [Compound 8] the IC50 was 251 nM. Compound COC1=NN(c2ccc(CNC(=O)c3nnc4ccc(Cl)cn34)cc2F)CCN1S(=O)(=O)C(F)(F)F [Compound 92] has an IC50 of 53.7 nM. Compound COC1=NN(c2ccc(CNC(=O)c3nnc4ccc(Br)cn34)cc2F)CCN1S(=O)(=O)C(F)(F)F [Compound 94] has an IC50 of 38.9 nM. In the case of CCc1nc2c(C)cc(C)cn2c1C(=O)NCc1ccc(N2CCN(S(=O)(=O)C(F)(F)F)C=N2)c(F)c1 [Compound 95], the IC50 is reported as 38 nM.
